Measured values taken from US10543166B2, “Implantable drug delivery devices and methods of making the same” (TARIS Biomedical LLC, priority 2009, dated 2020).

What was measured:
[1] = In vitro drug release by diffusion through the wall of silicone tube devices; format: physicochemical; conditions: silicone tube ID about 0.060 in, OD 0.076 in, length about 3 cm; solid tablets, payload about 60 mg; no aperture; in vitro in water at about 37° C
Description: A study was performed to determine the feasibility of delivering drug through the wall of a drug reservoir via diffusion. Devices were formed form silicone tubes having an inner diameter of about 0.060 inches, an outer diameter of 0.076 inches, and a length of about 3 cm. The devices were loaded with solid drug tablets of lidocaine, for a total payload of about 60 mg. Some of the devices included an aperture formed through the tube wall, the aperture having a diameter of 150 μm. These devices were loaded with solid tablets of either lidocaine hydrochloride monohydrate or a combination of lidocaine hydrochloride monohydrate and lidocaine base. […] The devices were tested in vitro in water at about 37° C.

[2] = In vitro drug release through both the wall and apertures of silicone tube devices; format: physicochemical; conditions: in vitro in water at about 37° C
Description: Another study was performed to investigate the feasibility of delivering drug from a device through both a wall of a drug reservoir and from an aperture in the wall of the drug reservoir. Devices were formed form silicone tubes having a length of about 3 cm. The devices were loaded with solid drug tablets of lidocaine base, for a total payload of about 60 mg. […] The devices were tested in vitro in water at about 37° C.

SMILES: CCN(CC)CC(=O)Nc1c(C)cccc1C [lidocaine base]
- delivery of drug via diffusion through a silicone wall without an aperture [1]: feasible to deliver drug via diffusion through a silicone wall without an aperture
- effect of apertures on release rate ([2]; devices with 0, 1 (150 μm), 2, 30 or 60 (360 μm) apertures): release rate can be increased by adding apertures to the device
- release from a silicone tube without any apertures ([2]; silicone tubes about 3 cm, solid tablets, payload about 60 mg): can be released from a silicone tube without any apertures
